# Laboratory results taken from ChEMBL document CHEMBL1155026, “Biaryl and heteroaryl derivatives of SCH 58261 as potent and selective adenosine A2A receptor antagonists” (Bioorg Med Chem Lett, 2008).
# pKi: −log10 of the molar value.
# Columns and labels:
# [1] = AUC (0 to 6 hrs) in rat at 3 mg/kg, po; type: ADME, organism-based; parameters: time < 6 hr, dose 3 mg/kg, route oral; conditions: plasma
# Adenosine receptor A2a = Adenosine receptor A2a (Homo sapiens, UniProt P29274)
# Description: Antagonist activity at human adenosine A2A receptor
# Rattus norvegicus [2] = experiment: Inhibition of haloperidol-induced catalepsy in rat at 3 mg/kg, po after 4 hrs; type: functional
# [3] = Kinetic solubility of compound at pH 7.4 by nephelometry; type: physicochemical; conditions: buffer
# Rattus norvegicus [4] = experiment: Inhibition of haloperidol-induced catalepsy in rat at 3 mg/kg, po after 1 hr; type: functional
# Rattus norvegicus [5] = experiment: Inhibition of haloperidol-induced catalepsy in rat at 1 or 3 mg/kg, po after 4 hrs; type: functional
# Rattus norvegicus [6] = experiment: Inhibition of haloperidol-induced catalepsy in rat at 1 or 3 mg/kg, po after 1 hr; type: functional
# Rattus norvegicus [7] = experiment: Inhibition of haloperidol-induced catalepsy in rat at 1 mg/kg, po after 4 hrs; type: functional
# Rattus norvegicus [8] = experiment: Inhibition of haloperidol-induced catalepsy in rat at 1 mg/kg, po after 1 hr; type: functional
# Adenosine receptor A2a, sequence (P29274 whole entry): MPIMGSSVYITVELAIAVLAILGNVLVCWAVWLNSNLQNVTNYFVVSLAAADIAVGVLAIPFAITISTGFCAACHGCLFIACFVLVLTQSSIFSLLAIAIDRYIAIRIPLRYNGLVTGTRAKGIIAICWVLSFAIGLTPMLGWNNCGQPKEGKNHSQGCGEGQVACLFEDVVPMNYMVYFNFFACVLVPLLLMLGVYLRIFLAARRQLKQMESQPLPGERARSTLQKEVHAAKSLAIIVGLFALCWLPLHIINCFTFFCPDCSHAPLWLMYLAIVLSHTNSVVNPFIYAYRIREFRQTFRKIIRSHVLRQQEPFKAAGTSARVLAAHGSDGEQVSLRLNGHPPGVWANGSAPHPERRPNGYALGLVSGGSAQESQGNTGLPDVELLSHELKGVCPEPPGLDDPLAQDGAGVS
AUC(0-t) at 6 h [1],Structure (SMILES),pKi (Adenosine receptor A2a),inhibition in vivo at 3 mg/kg (Rattus norvegicus [2]),solubility kinetic [3],inhibition in vivo at 3 mg/kg (Rattus norvegicus [4]),inhibition in vivo at 3 mg/kg (Rattus norvegicus [5]),inhibition in vivo at 3 mg/kg (Rattus norvegicus [6]),inhibition in vivo at 1 mg/kg (Rattus norvegicus [7]),inhibition in vivo at 1 mg/kg (Rattus norvegicus [8])
,COCCOC(C)c1ccc2cc(CCn3ncc4c3nc(N)n3nc(-c5ccco5)nc43)ccc2n1 (stereo not given),8.82,,,,,,,
656 ng·h/mL,Nc1nc2c(cnn2CCc2ccc3nc(CN4CCOCC4)ccc3c2)c2nc(-c3ccco3)nn12,8.64,0%,,0%,,,,
67 ng·h/mL,Nc1nc2c(cnn2CCc2ccc(-c3ccc(OC(F)(F)F)cc3)cc2)c2nc(-c3ccco3)nn12,8.11,,< 5 µM,,0%,20%,,
,COc1ccc(-c2ccc(CCn3ncc4c3nc(N)n3nc(-c5ccco5)nc43)cc2)cn1,8.72,0%,< 5 µM,,,,,
450 ng·h/mL,CCc1ccc2cc(CCn3ncc4c3nc(N)n3nc(-c5ccco5)nc43)ccc2n1,8.57,38%,< 2.5 µM,43%,,,,
,Nc1nc2c(cnn2CCc2ccc(-c3ccccc3)cc2)c2nc(-c3ccco3)nn12,8.96,,,,,,,
,Nc1nc2c(cnn2CCc2ccc3nc(C(=O)N4CCOCC4)ccc3c2)c2nc(-c3ccco3)nn12,8.80,13%,100 µM,23%,,,,
,Nc1nc2c(cnn2CCc2ccc(-c3cccnc3)cn2)c2nc(-c3ccco3)nn12,7.94,,,,,,,
,Nc1nc2c(cnn2CCc2cccc(-c3cccnc3)c2)c2nc(-c3ccco3)nn12,8.26,,,,,,,
351 ng·h/mL,Nc1nc2c(cnn2CCc2ccc(-c3cccnc3)cc2)c2nc(-c3ccco3)nn12,8.82,,< 4 µM,,,,25%,40%
1400 ng·h/mL,Cc1ccc2cc(CCn3ncc4c3nc(N)n3nc(-c5ccco5)nc43)ccc2n1,8.62,38%,6 µM,86%,,,,
,COc1ccc(-c2ccc(CCn3ncc4c3nc(N)n3nc(-c5ccco5)nc43)cc2)cc1,9.30,,< 5 µM,,,,5%,30%

Structure (SMILES),AUC(0-t) at 6 h [1],pKi (Adenosine receptor A2a),inhibition in vivo at 3 mg/kg (Rattus norvegicus [2]),solubility kinetic [3],inhibition in vivo at 3 mg/kg (Rattus norvegicus [4]),inhibition in vivo at 3 mg/kg (Rattus norvegicus [5]),inhibition in vivo at 3 mg/kg (Rattus norvegicus [6]),inhibition in vivo at 1 mg/kg (Rattus norvegicus [7]),inhibition in vivo at 1 mg/kg (Rattus norvegicus [8])
Nc1nc2c(cnn2CCc2ccc3nc(N4CCOCC4)ccc3c2)c2nc(-c3ccco3)nn12,6 ng·h/mL,8.74,,,,,,,
Nc1nc2c(cnn2CCc2ccc(-c3cnccn3)cc2)c2nc(-c3ccco3)nn12,114 ng·h/mL,9.05,3%,< 4 µM,,,,,
CC(c1ccc2cc(CCn3ncc4c3nc(N)n3nc(-c5ccco5)nc43)ccc2n1)N1CCOCC1 (stereo not given),7490 ng·h/mL,8.89,13%,100 µM,28%,,,,
Cc1ccc(-c2ccc(CCn3ncc4c3nc(N)n3nc(-c5ccco5)nc43)cc2)cn1,199 ng·h/mL,9.22,,< 5 µM,,25%,60%,,
